Experimental data: article PMC8122671, “New Succinimides with Potent Anticancer Activity: Synthesis, Activation of Stress Signaling Pathways and Characterization of Apoptosis in Leukemia and Cervical Cancer Cells” (International Journal of Molecular Sciences, 2021)
Entries after “also recorded” stand apart in the source; their conditions may differ. Where two headings read alike, the source gives them in different places.

Experiments:
[1] = tested on: plasmid DNA (pcDNA3.1HisC); experiment: DNA-cleavage protection assay (BamHI digestion of plasmid DNA); assay type: biochemical; conditions: 100 µM, overnight 37 °C, then BamHI 3 h
Method: A DNA-cleavage protection assay has been successfully used for the identification of compounds that bind DNA either covalently or noncovalently. Such binding may result in DNA being less susceptible to enzymatic cleavage. […] It was also reported that naphtalenoimides or indolomaleimides intercalate into DNA [13, 14]. […] In CD studies, a synthetic 23-nt duplex DNA or bovine thymus DNA was incubated with compound Ic or daunorubicin (reference compound). […] Using a DNA-cleavage protection assay, we investigated whether selected compounds 2c, 2d, and 2f and 3c, 3d, and 3f interact with a plasmid DNA, resulting in increased resistance to endonucleolytic cleavage. Plasmid DNA (pcDNA3.1HisC) containing a single BamHI cleavage site was incubated with test compounds and subsequently digested with BamH1 restriction endonuclease. Daunorubicin (a strong DNA-intercalating agent) was used as a reference compound. Non-digested plasmid DNA existed predominantly in the circular form; however, the superhelical and linear forms were also detected (Figure 5, lane 1). […] This observation can be explained by the higher lipophilicity of 3c, 3d, and 3f compared to 2c, 2d, and 2f, which may facilitate their more efficient binding to DNA.
First, 0.5 μg of plasmid DNA (pcDNAHisC, total length 5.5 kbp) containing a unique BamHI restriction site was dissolved in a 1× BamHI reaction buffer and incubated overnight at 37 °C with the test compounds or daunorubicin. Daunorubicin, a strong intercalating agent, was used as a positive control. The concentration of the test compounds and daunorubicin samples was 100 µM. In the next step, the reaction mixtures were digested with BamHI restriction endonuclease (2 U/μL) for 3 h at 37 °C. The total reaction volume was 10 μL. Products of the reaction were subjected to the 1% agarose gel electrophoresis in TBE buffer. The gel was stained with ethidium bromide, and DNA fragments were visualized under a UV lamp (GBox, Syngene).

[2] = tested on: MOLT-4 (Human T-Lymphoid Cell Line); experiment: MTT cytotoxicity assay, MOLT-4; assay type: cell-based; conditions: MOLT-4, 48 h incubation, average (SD) of three experiments, read-out: IC50 MOLT-4
Method: (§1) The cytotoxicity of new derivatives of dicarboximides was tested in HeLa (cervix carcinoma cell line), K562 (myelogenous leukemia cell line), MOLT-4 (Human T-Lymphoid Cell Line), and HUVEC (normal endothelial) cells. First, the viability of cells was determined after 48 h incubation with the screened compounds used at the concentration of 100 μM (data not shown). […] Cells exposed to 1% DMSO (as vehicle) served as the control with 100% survival.
(§2) Human umbilical vein endothelial cells (Life Technologies, Carlsbad, CA, USA) were cultured (according to the manufacturer’s instructions) in Medium 200 containing low serum growth supplement; 1 × 10^4 cells were seeded on each well on a 96-well plate (Nunc, Roskilde, Denmark). The HeLa (human cervix carcinoma), K562, and MOLT-4 (leukemia) cells were cultured in RPMI 1640 medium supplemented with antibiotics and 10% fetal calf serum in a 5% CO2–95% air atmosphere; 7 × 10^3 cells were seeded on each well on a 96-well plate (Nunc). Twenty-four hours later, cells were exposed to the test compounds for additional 48 hours. Stock solutions of test compounds were freshly prepared in DMSO. The final concentrations of the compounds tested in the cell cultures were 2 × 10^−1, 1 × 10^−1, 5 × 10^−2, 1 × 10^−2, 1 × 10^−3, and 1 × 10^−4 mM. The concentration of DMSO in the cell culture medium was 1%. The values of IC50 (the concentration of test compound required to reduce the cell survival fraction to 50% of the control) were calculated from dose–response curves and used as a measure of cellular sensitivity to a given treatment. The cytotoxicity of all compounds was determined by the MTT [3-(4,5-dimethylthiazol-2-yl)-2,5-diphenyltetrazolium bromide; Sigma, St. Louis, MO, USA] assay. Briefly, after 24 or 48 h of incubation with drugs, the cells were treated with the MTT reagent, and incubation was continued for 2 h. MTT-formazan crystals were dissolved in 20% SDS and 50% DMF at pH 4.7, and absorbance was read at 570 and 650 nm on a microplate reader FLUOstar Omega (BMG Labtech, Offenburg, Germany). As a control (100% viability), we used cells grown in the presence of the vehicle (1% DMSO) only.

[3] = tested on: HUVEC (normal endothelial) cells; experiment: MTT cytotoxicity assay, HUVEC; assay type: cell-based; conditions: Homo sapiens, 48 h incubation, average (SD) of three experiments, read-out: IC50 HUVEC
Method: as §1, §2

[4] = tested on: K562 (myelogenous leukemia cell line); experiment: MTT cytotoxicity assay, K562; assay type: cell-based, human; conditions: 48 h incubation, average (SD) of three experiments, read-out: IC50 K562
Method: as §1, §2

[5] = tested on: HeLa (human cervix carcinoma) cells; experiment: MTT cytotoxicity assay, HeLa; assay type: cell-based; conditions: 48 h incubation, average (SD) of three experiments, read-out: IC50 HeLa
Method: as §1, §2

[6] = MTT cytotoxicity assay, cancer cell lines taken together (HeLa, K562, MOLT-4); assay type: cell-based; conditions: human, K562 and MOLT-4 cancer cells
Method: The cytotoxicity of new derivatives of dicarboximides was tested in HeLa (cervix carcinoma cell line), K562 (myelogenous leukemia cell line), MOLT-4 (Human T-Lymphoid Cell Line), and HUVEC (normal endothelial) cells. First, the viability of cells was determined after 48 h incubation with the screened compounds used at the concentration of 100 μM (data not shown). For compounds that reduced the viability of cancer cells by more than 50%, the IC50 values were determined (Table 2). Cells exposed to 1% DMSO (as vehicle) served as the control with 100% survival.
Human umbilical vein endothelial cells (Life Technologies, Carlsbad, CA, USA) were cultured (according to the manufacturer’s instructions) in Medium 200 containing low serum growth supplement; 1 × 10^4 cells were seeded on each well on a 96-well plate (Nunc, Roskilde, Denmark). […] The cytotoxicity of all compounds was determined by the MTT [3-(4,5-dimethylthiazol-2-yl)-2,5-diphenyltetrazolium bromide; Sigma, St. Louis, MO, USA] assay. […] MTT-formazan crystals were dissolved in 20% SDS and 50% DMF at pH 4.7, and absorbance was read at 570 and 650 nm on a microplate reader FLUOstar Omega (BMG Labtech, Offenburg, Germany). […]

[7] = tested on: caspase 3/7 in K562 cells; experiment: Caspase-3/7 activity assay (Apo-ONE) in K562 cells; assay type: cell-based, human; conditions: K562, 18 h, test compound at 5xIC50, staurosporine 1 μM; vs 1% DMSO
Method: After incubation for 18 h, K562 cells were lysed and the activity of caspase 3/7 was measured using a profluorescent peptide substrate.
First, 20 × 10^3 K562 cells were seeded on each well of a 96-well plate in RPMI 1640 medium supplemented with 10% fetal calf serum and antibiotics. Cells were grown for 24 h at 37 °C and 5% CO2. Test dicarboximides were dissolved in DMSO and added to cell culture to the final concentration of 5 × IC50. […] Cells were exposed to test compounds for 18 h at 37 °C and 5% CO2. Subsequently, the activity of caspase 3 and 7 was measured by Apo-ONE® Homogeneous Caspase-3/7 Assay (Promega, Madison, WI, USA) according to the manufacturer’s instructions. Briefly, the cells were lysed and incubated for 1.5 h with a profluorescent substrate for caspase 3 and 7. Next, the fluorescence was read at an excitation wavelength of 485 nm and emission of 520 nm with a FLUOStar Omega microplate reader (BMG-Labtech, Offenburg, Germany).

For `COc1cccc2c1C(=O)c1c(O)c3c(c(O)c1C2=O)C[C@@](O)(C(C)=O)C[C@@H]3O[C@H]1C[C@H](N)[C@H](O)[C@H](C)O1` [daunorubicin, reference compound], the “protection of plasmid DNA from BamHI digestion (circular DNA left)” value (from here on “protection of plasmid DNA”) [1] was “prevented linearization of DNA”.
`O=C1C2C(C(=O)N1CCO)C1(c3ccccc3)CC2(c2ccccc2)C(c2ccccc2)=C1c1ccccc1` (stereo not shown) [compound 5, 4-(2-hydroxyethyl)-1,7,8,9-tetraphenyl-4-azatricyclo[5.2.1.02,6]dec-8-ene-3,5-dione] showed an IC50 [2] of 2.1 µM, an IC50 [3] of 0.7 µM and an IC50 ([4]; Homo sapiens, K562, 48 h) of 6.2 µM. The IC50 [5] was 8 µM and the melting point was 197 to 198 °C.
With `CN[C@@H]1C[C@H]2O[C@@](C)([C@@H]1OC)n1c3ccccc3c3c4c(c5c6ccccc6n2c5c31)C(=O)NC4` [staurosporine, reference compound] the viability at 48 h, 1 µM [6] was 44 to 49% and the “activity of caspase 3/7” value [7] was “strongly activated caspase 3/7”.
`O=C1C2C(C(=O)N1CC(O)CN1CCCCC1)C1(c3ccccc3)CC2(c2ccccc2)C(c2ccccc2)=C1c1ccccc1` (stereo not shown) [3f, 4-[2-hydroxy-3-(piperidin-1-yl)propyl]-1,7,8,9-tetraphenyl-4-azatricyclo[5.2.1.0^2,6]dec-8-ene-3,5-dione] showed an IC50 [2] of 3 µM, an IC50 [3] of 0.4 µM and an IC50 [4] of 3 µM. The IC50 ([4]; Homo sapiens, K562, 48 h) was < 6 µM, the IC50 [5] was 3 µM and the “activity of caspase 3/7” value [7] was “activated caspase 3/7 to a lesser extent; also recorded: activated caspase 3 and 7”. The “protection of plasmid DNA” value [1] was “interaction seems to be stronger”.
`CCC12C(=O)C(CC)(C(c3ccccc3)=C1c1ccccc1)C1C(=O)N(CC(O)CN3CCCCC3)C(=O)C12` (stereo not shown) [2f, 4-[2-hydroxy-3-(piperidin-1-yl)propyl]-1,7-diethyl-8,9-diphenyl-4-azatricyclo[5.2.1.0^2,6]dec-8-ene-3,5,10-trione] gave an IC50 [2] of 3.4 µM, an IC50 [3] of 3.1 µM and an IC50 [4] of 3.9 µM. The IC50 ([4]; Homo sapiens, K562, 48 h) was < 6 µM, the IC50 [5] was 5.1 µM and the “activity of caspase 3/7” value [7] was “over eight-fold increase in caspase activity; also recorded: activated caspase 3 and 7”. For the same compound, the “protection of plasmid DNA” value [1] was “the circular form was also detected”.
